The values that follow are results of earlier work, collected in patent publication US20210251946A1, “CANNABINOID-[…], FORMULATIONS, AND USES THEREOF FOR TREATING AMYOTROPHIC LATERAL SCLEROSIS” (GREEN RUSH SCIENCE, LLC, priority 2020, published 2021).

Structures are written as SMILES.

Data set [1] relates to ALS hSOD(G93A) mice. As to conditions: daily intraperitoneal administration, initiated after disease onset.
The test system of data set [2] is ALS hSOD(G93A) mice. Particulars: intraperitoneally, beginning after onset of motor impairment and tremor (at 90 days old).

As for `CN1CCCCC1Cn1cc(C(=O)c2cc([N+](=O)[O-])ccc2I)c2ccccc21` (stereo not drawn) [AM-1241], in data set [1], the increase of survival is 56% and the motor impairment result is recorded as “delayed motor impairment”.

Take `Cc1c(C(=O)c2cccc3ccccc23)c2cccc3c2n1[C@H](CN1CCOCC1)CO3` [WIN 55,212-2]: in data set [2], the disease progression entry is reported as “significant delay in disease progression”.
